Assay results: patent publication US12016841B2, “Methods and compositions for treatment of presbyopia, mydriasis, and other ocular disorders” (Ocuphire Pharma, Inc., priority 2018, dated 2024)
Counter-ions that a name gives are not always drawn.

System: patients with pupil sizes of at least 7 mm in diameter under dim light conditions
Test: Pupil diameter after one drop of 0.2%, 0.4% or 0.8% (w/v) phentolamine mesylate solution (clinical study, NeurOptics pupilometer)
Type: in vivo, human
Procedure: Reduction in pupil diameter can be analyzed and characterized using procedures such as those described below in which a phentolamine mesylate solution was administered to patients' eyes and change in pupil diameter was measured and characterized. […] The phentolamine mesylate solution contained either 0.2% (w/v) phentolamine mesylate, 0.4% (w/v) phentolamine mesylate, or 0.8% (w/v) phentolamine mesylate.
Sixteen patients were randomized into four groups (of four subjects each). Each group was treated on three successive study visits separated by at least 4 days with one drop of ophthalmic oxymetazoline solution (Visine LR®) in each eye followed by one drop test article in each eye. The test article was a 0.2% (w/v) phentolamine mesylate solution, 0.4% (w/v) phentolamine mesylate solution, 0.8% (w/v) phentolamine mesylate solution, or placebo. Test articles contained the designed amount of phentolamine mesylate in a solution of Tears Naturale II® (from Alcon Labs). Placebo was just Tears Naturale II® (from Alcon Labs). Tears Naturale II® (from Alcon Labs) contains Dextran 70 (0.1% by weight), Hydroxypropyl Methylcellulose 2910 (0.3% by weight), Polyquaternium-1 (0.001% by weight), potassium chloride, water (purified), sodium borate, sodium chloride, and hydrochloric acid and/or sodium hydroxide as necessary to adjust the pH. The patients' pupil diameters were recorded at baseline (i.e., prior to treatment administration), and at 30 minutes, 1 hour, 2 hours, 4 hours, and 8 hours after administration of test articles. Total study duration was approximately nine hours.
Pupil diameters were measured to within 0.1 mm for each eye at baseline and each subsequent time point using a NeurOptics™ pupilometer. Comparisons of changes in mean values within treatment groups were tested for significance using two-tailed paired two sample t-tests with a threshold for significance set at p<0.01 (Bonferroni Correction for multiple paired t-tests). Differences between treatment groups with respect to mean values for pupil size over the course of the study were tested for significance using repeated measure ANOVA (which discards data from subjects lacking any data points). Differences in means between treatment groups at individual time points were tested for significance using one-way ANOVA.

| SMILES | mean pupil diameters compared to placebo (ad hoc Fisher's tests) (any concentration, 2, 4 and 8 hours) | mean changes in pupil diameters from baseline as a function of time (over the course of the study) | differences in mean pupil diameters between different doses (any time point) | mean pupil diameters (one hour post treatment) |
| --- | --- | --- | --- | --- |
| Cc1ccc(N(CC2=NCCN2)c2cccc(O)c2)cc1 [phentolamine mesylate] | significant differences in mean pupil diameters | significant reductions in pupil size |  |  |
| Cc1ccc(N(CC2=NCCN2)c2cccc(O)c2)cc1 [phentolamine] |  |  | no statistically significant differences | lower |
